From US5840893A, “Compounds for treating infectious diseases” (priority 1996, dated 1998)
Counter-ions that a name gives are not always drawn. Like-named read-outs stand apart in the source and are kept apart here.

Key:
[1] = tested on: HIV-1; experiment: Viral production in HIV-1-infected cultured monocytes at fixed 100 nM compound (Table II); type: cell-based; settings: Human immunodeficiency virus 1, Monocyte, read-out: Viral Production (percentage of untreated control)
Experimental: Alternatively, the compounds may all be compared for inhibition of HIV replication at a fixed concentration. Presented in Table II are compounds that were used at a concentration of 100 nM to inhibit the production of HIV-1 in cultured monocytes infected with HIV-1 10 days prior to assay (10 ng of p24/10^6 cells) . The production of HIV-1 in each treated culture is reported as percentage of untreated control.

[2] = tested on: HIV-1; experiment: AZT and Compound No. 2 in combination on HIV-1 infected monocyte cultures (RT activity); type: cell-based, HIV-1 in human monocyte cultures; settings: for RT activity: (-) No. 2
Experimental: Primary human monocytes were obtained from peripheral blood by Ficoll-Hypaque centrifugation and adherence to plastic as described previously. Gartner S. P., et al., 1986, Science 233:215. Briefly, after Ficoll-Hypaque (Pharmacia) separation, PBMCs were washed 4 times with DMEM (the last wash was done at 800 rpm to remove platelets) and resuspended in monocyte culture medium [DMEM supplemented with 1 mM glutamine, 10% heat-inactivated human serum, 1% penicillin+streptomycin mixture (Sigma)] at a density of 6×10^6 cells/ml. Cells were seeded in 24-well plates (1 ml per well) and incubated for 2 h at 37° C., 5% CO2. Following incubation, cells were washed 3 times with DMEM to remove non-adherent cells and incubation was continued in monocyte culture medium supplemented with 250 U/ml human M-CSF (Sigma). Cells were allowed to mature for 7 days prior to infection with the monocyte-tropic strain, HIV-1ADA. Nuovo, G. J., et al., 1992, Diagn. Mol. Pathol. 1:98. Two hours after infection, cells were washed with medium and cultured in RPMI supplemented with 10% human serum. In experiments where PCR analysis was performed, virus was pretreated with RNAse-free DNAse (Boehinger-Mannheim)for 2 h at room temperature and then filtered though a 0.2 μm pore nitrocellulose filter prior to infection.
For the reverse transcriptase (RT) assay, 10 μl of culture supernatant was added to 40 μl of reaction mixture (final composition was 50 mM Tris-HCl, pH 7.8; 20 mM KCl; 5 mM MgCl2; 1 mM DTT; 0.1% Triton X-100; 0.2 OD/ml polyA; 0.2 OD/ml oligo(dT)12-18; and 40 μCi/ml ^3 H-dTTP (76 Ci/mmol, DuPont) and incubated 2 hr at 37° C. 5 μl of the reaction mixture was then spotted onto the DE 81 (Whatman) paper. Paper was air dried and washed 5 times with 5% Na2 HPO4, followed by rinsing with distilled water. After air drying, paper was put on a Flexi Filter plate (Packard), covered with scintillation fluid and counted in a Top Count Microplate Counter (Packard). Results are expressed as counts per minute in 1 ml of supernatant (cpm/ml).
In view of these premises, the effects on HIV-1 replication in human monocyte cultures of the various concentrations of AZT, alone or in combination with 100 nM Compound No. 2, were tested using the protocols of Sections 6.2.1 and 6.2.2. Drugs were added to the monocyte cultures together with HIV-1 at about 10^5 TCID/ml. The concentration of drugs was maintained on refeeding. HIV-1 replication was assessed by assay of the supernatant for reverse transcriptase activity. The results are expressed as mean±std. dev. (cpmx10^-3) in Table V.

[3] = i.p., 50 mg/kg, water
Experimental: (§1) Standard addition curves for each test compound were constructed by adding increased amounts of drug to mouse or human A^+ plasma (Long Island Blood Services; Melville, N.Y.). […] The eluted sample was reduced to dryness in a rotary evaporator and resuspended in 1.0 ml Buffer A.
(§2) Female ND4 Swiss Webster mice (21-24 g) were obtained from Harlan Sprague Dawley (Indianapolis, Ind.) and randomly placed in groups of five in cages with free access to food and water. […] The other CNI compounds were administered intraperitoneally or by oral gavage as a solution in water titrated with sufficient HCl to dissolve the drug. At various time points, ranging from 5 min to 4 days, a single group of animals was euthanized by carbon dioxide inhalation and bled by cardiac puncture using heparin as an anticoagulant. The blood from the five mice in the group was pooled and centrifuged at 14000×g for 10 min. The volume of plasma was measured, and equal volume of Buffer A added, and the mixture extracted and analyzed as described above, except that the dried eluates were resuspended in 200 μl Buffer A and 100 μl was injected onto the high performance liquid chromatography (HPLC) system.
(§3) The area under the plasma concentration-time curve (AUC) was determined, and bioavailability was measured as AUCoral /AUCi.p.. […] The volume of distribution (VD) was calculated as dose/B, and the total clearance rate (Cltot) calculated as β*VD. Cmax and tmax are the maximal plasma concentration and time of this measurement, respectively.

[4] = tested on: Plasmodium falciparum clone Dd2; experiment: Antimalarial activity in vitro, hypoxanthine incorporation, clone Dd2; type: cell-based; settings: for IC50: Plasmodium falciparum, DD2, read-out: IC50 ± standard deviation
Experimental: The antimalarial activity of the compounds was determined essentially as described in Desjardins et al. supra. Fifty Al of various concentrations of a compound of the invention, chloroquine, or pyrimethamine were added to the wells of microtiter plates, followed by 200 Al of ring-stage, synchronized, P. falciparum-infected erythrocytes (final hematocrit=1.5%, final parasitemia=1-5%). The plates were incubated for 24 hr in a candle jar kept at 37° C., and then 25 μl of [^3 H]-hypoxanthine (Amersham, Arlington Heights, Ill.; 2.5 μl Ci/well) was added. The plates were then incubated for a further 24 hr, before harvesting onto Unifilter-96 GF/C filter-microplates (Packard; Meriden, Conn.). Twenty-five μl of Microscint scintillation fluid (Packard) was added to each well of the filter-microplate, which was subsequently counted in a Top-count microplate scintillation counter (Packard). The percent of [^3 H] -hypoxanthine uptake relative to control infect-erythrocytes was used to determine the IC50 value for the compounds by non-linear regression for LD50 determination.
The Dd2 clone of P. falciparum, which was both chloroquine and pyrimethamine resistant, was utilized to compare the antimalarial activity of the remaining CNI compounds (Table VIII).

[5] = tested on: mice; experiment: Toxicity study: median lethal dose in mice, i.p.; type: in vivo
Experimental: The doses of compounds of the invention found to be lethal to 50% of the mice (LD50) were determined by intraperitoneal injection of groups of five animals with increasing doses of each compound. CNI-0294 was administered from 0, 2, 10, 20, 40, 80, 160, 320, 640, 1280 mg/kg in 0.5 ml of water/HCl; CNI-1594 at 0, 2.4, 5, 10, 20, 40, 80 mg/kg in 0.5 ml of water/HCl; CNI-1794 at 0, 20, 50, 80 mg/kg in 0.5 ml of water/HCl; and CNI-1894 at 0, 10, 20, 40, 80, 240, 480, 960 mg/kg in water/HCl. […] The percentage of animals in each group which died were utilized to calculate the LD50 by non-linear curve fitting with the Enzfit software (Elsevier Bioscience; Cambridge, UK) programmed with the Chou equation (Chou 1976, J Theor Biol 39:253-276)).
The compounds (FIGS. 4A-E), were screened for toxicity via a modified LD50 assay procedure as described above in an outbred strain of mice.

[6] = in vivo; settings: mouse, plasma, ip, 50 mg/kg
Experimental: as §1, §2, §3

[7] = in vitro; type: in vitro ADME, mouse (ND4 Swiss Webster); settings: for number of metabolites: mouse liver post-mitochondrial supernatant, NADPH
Experimental: Several female ND4 Swiss Webster mice were euthanized by carbon dioxide inhalation and the livers excised and rinsed with ice cold phosphate buffered saline (pH 7.4). The livers were minced, gently homogenized in 50 mM phosphate buffer (pH 7.4) with a Dounce homogenizer, and centrifuged at 9600×g for 20 min. The post-mitochondrial supernatant was kept, glycerol added to 20%, and frozen at -70° C. in 1.0 ml aliquots until used. For each incubation, 1.0 ml of a 1.0 mg/ml drug solution was added to 3.0 ml of 50 mM phosphate buffer (pH 7.4), 1.0 ml of 2 mg/ml NADPH in 50 mM phosphate (pH 7.4), and 1.0 ml of the post-mitochondrial supernatant. Five hundred μl of each incubate was then immediately transferred to an ice-cold tube to provide the zero-time sample, and addition 500 μl aliquots removed to ice-cold tubes at 8, 15, 30, and 60 min. The samples were then extracted, and analyzed by HPLC as described in section 7.1. Control incubations were also performed where drug or post-mitochondrial supernatant was omitted. […] Peaks in the CNI compound incubations which increased over time, and were not present in control samples lacking the enzyme preparation were treated as putative metabolites.

[8] = tested on: HIV-1; experiment: Inhibition of HIV-1 replication in cultured macrophages (Table I); type: cell-based; settings: Human immunodeficiency virus 1, Macrophage; 50% inhibition of viral growth, RT or p24, macrophages
Experimental: A quantitative measurement of the activity of the compounds of the invention to block the replication of HIV-1 in non-dividing cells can be determined by culture of a macrophage-tropic strain of HIV-1 on peripheral blood-derived macrophages. The cells are cultured for 5-6 days prior to infection in a medium consisting of DMEM supplemented with 10% type A/B human serum and 200 U/ml Macrophage Colony Stimulating Factor, with half the medium changed after 3 days, to reach a density of about 10^6 cells per 5 ml well. A macrophage-tropic viral stock may be grown on these cells. The concentration of infectious particles in the stock is estimated by measurement of p24 antigen concentration.
To test the effect of compounds of the invention on HIV- 1 infection in the above-described culture system, the medium is removed and replaced with medium containing HIV-1 at a concentration of 1 ng of p24 (10^4 TCID50 /ml (TCID=tissue culture infectious doses)) and a known concentration of the compound of the invention (the inhibitor). After 24 hours, the cultures are washed to remove non-adherent virus and the culture is re-fed with medium containing the inhibitor at the desired concentration. The amount of replication of HIV-1 is estimated by an assay of the reverse transcriptase activity or by an assay of the concentration of p24 antigen in the culture medium every 2-3 days throughout the post-infection period. In a preferred embodiment the anti-HIV potency of the candidate drug is measured by comparison of the concentration of reverse transcriptase (RT) or of p24 antigen in the medium of the treated and control cultures at the time of the peak of these values in non-treated control cultures, that is about day 5 or 6 post-infection. Repetition at various levels of inhibitor allows for the calculation of the concentration of inhibitor that achieves 50% inhibition of viral growth, IC50. Table I discloses the IC50 of various inhibitors.

[9] = 100 nM compound, monocytes infected 10 days prior, 10 ng p24/10^6 cells

CC(=O)c1cccc(C(C)=O)c1N [2,6-diacetylaniline]
activity at 0.1 µM [1, 9]: 28%

CC(=O)c1cncc(C(C)=O)c1 [3,5-diacetylpyridine]
activity at 0.1 µM [1, 9]: 58%

Cc1cn([C@H]2C[C@H](N=[N+]=[N-])[C@@H](CO)O2)c(=O)[nH]c1=O [AZT]
inhibition at 10 pM ([2]; Human immunodeficiency virus 1, Monocyte, 264 h, read-out: reduction in RT activity): ~20%
RT activity ([2]; day-7, AZT 10 pM): 0.92 ± 0.21 cpmx10^-3
RT activity ([2]; day-7, AZT 100 pM): 0.79 ± 0.14 cpmx10^-3
RT activity ([2]; day-7, AZT 1 nM): 0.60 ± 0.28 cpmx10^-3
RT activity ([2]; day-7, AZT 10 nM): 0.05 ± 0.02 cpmx10^-3
RT activity ([2]; day-11, AZT 10 pM): 1.63 ± 0.81 cpmx10^-3
RT activity ([2]; day-11, AZT 100 pM): 1.34 ± 0.59 cpmx10^-3
RT activity ([2]; day-11, AZT 1 nM): 1.07 ± 0.49 cpmx10^-3
RT activity ([2]; day-11, AZT 10 nM): 0.08 ± 0.03 cpmx10^-3

CC(=O)c1cc(N)cc(C(C)=O)c1 [CNI-1894, 3,5-diacetylaniline]
A (zero time intercept, distribution phase) [3]: 14.93 µg/mL
B (zero time intercept, elimination phase) [3]: 0.15 µg/mL
VD [3]: 6.60 L
t1/2α [3]: 0.58 h
t1/2β [3]: 23.10 h
α [3]: 1.19 h⁻¹
IC50 [4]: > 200 µM
antimalarial activity at the highest concentration tested ([4]; clone Dd2, 200 μM): inactive at the highest concentration tested
LD50 (median lethal dose) [5]: 258.64 ± 1.37 mg/kg
signs and time of toxic reactions / death [5]: died 2-3 days post injection, and showed no sign of any immediate toxicity
tolerability [5]: reasonably well tolerated
CL/F [6]: 3.3 mL/min
k el [6]: 8.33e-06 s⁻¹
activity at 0.1 µM [1, 9]: 20%
number of metabolites [7]: one minor and one major metabolite
metabolised at 1 h ([7]; mouse, liver post-mitochondrial supernatant, 60 min incubation, by peak area, read-out: drug altered (metabolic conversion)): 17.3%

CC(=O)c1cc(NC(=N)NC(=N)N)cc(C(C)=O)c1 [Compound No. 12, N-(3,5-diacetylphenyl)biguanide hydrochloride]
activity at 0.1 µM [1, 9]: 12%

CC(=O)c1cc(Nc2nc(N)nc(N)n2)cc(C(C)=O)c1 [Compound No. 13, 2-(3,5-diacetylphenyl)amino-4,6-diamino-1,3,5-triazine]
activity at 0.1 µM [1, 9]: 14%

CC(=O)c1cccc(Nc2cc(C)[n+](C)c(N)n2)c1 [Compound No. 14, 2-amino-4-(3-acetylphenyl)amino-1,6-dimethylpyrimidinium iodide]
IC50 [8]: 0.01 µM

CC(=O)c1ccc(Nc2cc(C)nc(N)n2)cc1 [Compound No. 17, 2-amino-4-(4-acetylphenyl)amino-6-methylpyrimidine]
LD50 (median lethal dose) [5]: 48.93 ± 0.12 mg/kg
LD50 compared with CNI-1594 [5]: identical to that for CNI-1594
signs and time of toxic reactions / death [5]: suggested a lethal neurotoxicity
activity at 0.1 µM [1]: 20%

Cc1cc(Nc2ccccc2)nc(N)n1 [Compound No. 45, 4-phenylamino-2-amino-6-methylpyrimidine]
IC50 [4]: 25.1 ± 0.72 µM

N=C(N)c1ccc(OCCCCCOc2ccc(C(=N)N)cc2)cc1 [pentamidine, reference compound]
number of metabolites [7]: seven
